In patent publication US10405547B2, “Substituted cyclic amides as herbicides” (FMC Corporation, priority 2015, dated 2019):

Experiments:
Assay type in all cases: in vivo
[1] = tested on: sedge, umbrella (small-flower umbrella sedge, Cyperus difformis); test: Test B flooded paddy test, umbrella sedge; settings: 500 g ai/ha, applied to paddy water, visual rating after 13 to 15 days, scale 0 (no effect) to 100 (complete control)
Summary of the method: (§1)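 In-water treatment: compound dosed into 3 cm flood over soil, water level unchanged throughout. Controls run alongside; visual assessment at day 13–15.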

corn (Zea mays) = test: Test A postemergence, corn; settings: visual injury, 0 to 100 scale (0 no effect, 100 complete control), approximately 10 days
Summary of the method: (§2)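 Injury scores (0 no effect, 100 complete control) were assigned by visually comparing treated with untreated plants after about 10 days of greenhouse growth. Seeds for soil treatment were sown into a loam and sand blend, while plants for foliar treatment grew in pots of that same blend.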

[2] = tested on: blackgrass (Alopecurus myosuroides); test: Test A postemergence, blackgrass; settings: visual injury, 0 to 100 scale (0 no effect, 100 complete control), approximately 10 days
Summary of the method: as §2

[3] = tested on: pigweed (Amaranthus retroflexus); test: Test A postemergence, pigweed; settings: visual injury, 0 to 100 scale (0 no effect, 100 complete control), approximately 10 days
Summary of the method: as §2

[4] = tested on: ryegrass, Italian (Lolium multiflorum); test: Test A postemergence, Italian ryegrass; settings: visual injury, 0 to 100 scale (0 no effect, 100 complete control), approximately 10 days
Summary of the method: as §2

rice (Oryza sativa) = test: Test B flooded paddy test, rice; settings: 500 g ai/ha, applied to paddy water, visual rating after 13 to 15 days, scale 0 (no effect) to 100 (complete control)
Summary of the method: as §1

[5] = tested on: ducksalad (Heteranthera limosa); test: Test B flooded paddy test, ducksalad; settings: 500 g ai/ha, applied to paddy water, visual rating after 13 to 15 days, scale 0 (no effect) to 100 (complete control)
Summary of the method: as §1

[6] = tested on: barnyardgrass (Echinochloa crus-galli); test: Test A preemergence, barnyardgrass; settings: 0 to 100 scale (0 no effect, 100 complete control)
Summary of the method: as §2

[7] = tested on: ragweed (common ragweed, Ambrosia elatior); test: Test A postemergence, ragweed; settings: visual injury, 0 to 100 scale (0 no effect, 100 complete control), approximately 10 days
Summary of the method: as §2

kochia (Kochia scoparia) [8] = test: Test A postemergence, kochia; settings: visual injury, 0 to 100 scale (0 no effect, 100 complete control), approximately 10 days
Summary of the method: as §2

[9] = tested on: pigweed (Amaranthus retroflexus); test: Test A preemergence, pigweed; settings: 0 to 100 scale (0 no effect, 100 complete control)
Summary of the method: as §2

[10] = tested on: galium (catchweed bedstraw, Galium aparine); test: Test A postemergence, galium; settings: visual injury, 0 to 100 scale (0 no effect, 100 complete control), approximately 10 days
Summary of the method: as §2

kochia (Kochia scoparia) [11] = test: Test A preemergence, kochia; settings: 0 to 100 scale (0 no effect, 100 complete control)
Summary of the method: as §2

[12] = tested on: foxtail, giant (Setaria faberii); test: Test A postemergence, giant foxtail; settings: visual injury, 0 to 100 scale (0 no effect, 100 complete control), approximately 10 days
Summary of the method: as §2

[13] = tested on: barnyardgrass (Echinochloa crus-galli); test: Test B flooded paddy test, barnyardgrass; settings: 500 g ai/ha, applied to paddy water, visual rating after 13 to 15 days, scale 0 (no effect) to 100 (complete control)
Summary of the method: as §1

[14] = tested on: foxtail, giant (Setaria faberii); test: Test A preemergence, giant foxtail; settings: 0 to 100 scale (0 no effect, 100 complete control)
Summary of the method: as §2

[15] = tested on: wheat (Triticum aestivum); test: Test A postemergence, wheat; settings: visual injury, 0 to 100 scale (0 no effect, 100 complete control), approximately 10 days
Summary of the method: as §2

[16] = tested on: ryegrass, Italian (Lolium multiflorum); test: Test A preemergence, Italian ryegrass; settings: 0 to 100 scale (0 no effect, 100 complete control)
Summary of the method: as §2

[17] = tested on: ragweed (common ragweed, Ambrosia elatior); test: Test A preemergence, ragweed; settings: 0 to 100 scale (0 no effect, 100 complete control)
Summary of the method: as §2

[18] = tested on: barnyardgrass (Echinochloa crus-galli); test: Test A postemergence, barnyardgrass; settings: visual injury, 0 to 100 scale (0 no effect, 100 complete control), approximately 10 days
Summary of the method: as §2

SMILES	Plant response rating, Sedge, Umbrella (Flood) [1]	Plant response rating, Corn (corn (Zea mays); 125 g ai/ha)	Plant response rating, Corn (corn (Zea mays); 500 g ai/ha)	Plant response rating, Blackgrass ([2]; 125 g ai/ha)	Plant response rating, Blackgrass ([2]; 500 g ai/ha)	Plant response rating, Pigweed ([3]; 125 g ai/ha)	Plant response rating, Pigweed ([3]; 500 g ai/ha)	Plant response rating, Ryegrass, Italian ([4]; 125 g ai/ha)	Plant response rating, Ryegrass, Italian ([4]; 500 g ai/ha)	Plant response rating, Rice (Flood) (rice (Oryza sativa))	Plant response rating, Ducksalad (Flood) [5]	Plant response rating, Barnyardgrass ([6]; 125 g ai/ha)	Plant response rating, Barnyardgrass ([6]; 500 g ai/ha)	Plant response rating, Ragweed ([7]; 125 g ai/ha)	Plant response rating, Ragweed ([7]; 500 g ai/ha)	Plant response rating, Kochia (kochia (Kochia scoparia) [8]; 125 g ai/ha)	Plant response rating, Kochia (kochia (Kochia scoparia) [8]; 500 g ai/ha)	Plant response rating, Pigweed ([9]; 125 g ai/ha)	Plant response rating, Pigweed ([9]; 500 g ai/ha)	Plant response rating, Galium ([10]; 125 g ai/ha)	also measured
O=C1NCC(c2cccc(Oc3ccccn3)c2)C1C(=O)Nc1cccc(F)c1F (stereo not drawn) [Compound 68]	0	0	0	0	20	0	0	0	0	0	80	20	50	0	0	0	0	0	0	0	Plant response rating, Galium ([10]; 500 g ai/ha): 0; Plant response rating, Kochia (kochia (Kochia scoparia) [11]; 125 g ai/ha): 0; Plant response rating, Kochia (kochia (Kochia scoparia) [11]; 500 g ai/ha): 0; Plant response rating, Foxtail, Giant ([12]; 125 g ai/ha): 0; Plant response rating, Foxtail, Giant ([12]; 500 g ai/ha): 60; Plant response rating, Barnyardgrass (Flood) [13]: 20; Plant response rating, Foxtail, Giant ([14]; 125 g ai/ha): 60; Plant response rating, Foxtail, Giant ([14]; 500 g ai/ha): 90; Plant response rating, Wheat ([15]; 125 g ai/ha): 0; Plant response rating, Wheat ([15]; 500 g ai/ha): 0; Plant response rating, Ryegrass, Italian ([16]; 125 g ai/ha): 0; Plant response rating, Ryegrass, Italian ([16]; 500 g ai/ha): 0; Plant response rating, Ragweed ([17]; 125 g ai/ha): 0; Plant response rating, Ragweed ([17]; 500 g ai/ha): 0; Plant response rating, Barnyardgrass ([18]; 125 g ai/ha): 10; Plant response rating, Barnyardgrass ([18]; 500 g ai/ha): 40
O=C1NCC(c2cccc(Cn3ccc(C(F)(F)F)n3)c2)C1C(=O)Nc1ccc(F)cc1F (stereo not drawn) [Compound 24]	0	0	0	0	0	0	0	0	0	0	0	0	0	0	0	0	0	0	0	0	Plant response rating, Galium ([10]; 500 g ai/ha): 0; Plant response rating, Kochia (kochia (Kochia scoparia) [11]; 125 g ai/ha): 0; Plant response rating, Kochia (kochia (Kochia scoparia) [11]; 500 g ai/ha): 0; Plant response rating, Foxtail, Giant ([12]; 125 g ai/ha): 0; Plant response rating, Foxtail, Giant ([12]; 500 g ai/ha): 0; Plant response rating, Barnyardgrass (Flood) [13]: 0; Plant response rating, Foxtail, Giant ([14]; 125 g ai/ha): 0; Plant response rating, Foxtail, Giant ([14]; 500 g ai/ha): 0; Plant response rating, Wheat ([15]; 125 g ai/ha): 0; Plant response rating, Wheat ([15]; 500 g ai/ha): 0; Plant response rating, Ryegrass, Italian ([16]; 125 g ai/ha): 0; Plant response rating, Ryegrass, Italian ([16]; 500 g ai/ha): 0; Plant response rating, Ragweed ([17]; 125 g ai/ha): 0; Plant response rating, Ragweed ([17]; 500 g ai/ha): 0; Plant response rating, Barnyardgrass ([18]; 125 g ai/ha): 0; Plant response rating, Barnyardgrass ([18]; 500 g ai/ha): 0
